Measurements taken from BindingDB's records for patent US20260062387 (Mitsubishi Tanabe Pharma, 2026).

Legend:
Test in all cases: SIK1, SIK2, and SIK3 inhibition test
[1] = molecular target: Serine/threonine-protein kinase SIK2 (Homo sapiens, UniProt Q9H0K1)
Description: (§1) The inhibitory activity of the compound for SIK1, SIK2, and SIK3 enzymes was assayed by measuring the amount of ADP, an enzyme reaction product, with ADP-Glo™ Max Assay (Promega). Enzymes, specifically, GST-tagged SIK1 (Carna Biosciences, Inc.), GST-tagged SIK2 (Carna Biosciences, Inc.), and GST-tagged SIK3 (SignalChem) were prepared in a reaction buffer (15 mM tris-hydrochloric acid buffer (pH 7.5), 0.001% Triton X-100, 0.01% BSA) so that the final concentration would be 20 nM, 3 nM, and 100 nM. Enzyme solutions were thus formed. In a reaction buffer, AMARA Peptide (SignalChem) as a substrate with a final concentration of 200 μM (SIK1, SIK2) or 100 μM (SIK3), ATP (Promega) with a final concentration of 1 mM, and magnesium chloride with a final concentration of 5 mM were prepared. Substrate solutions were thus formed. The enzyme solution, the substrate solution, and a DMSO solution of a concentration of the test compound were mixed together and reacted at room temperature for 2 hours. After the reaction, ADP-Glo™ Reagent (Promega) was added, and the reaction was performed at room temperature for 30 minutes. Subsequently, ADP-Glo™ Max Detection Reagent (Promega) was added, and the reaction was performed at room temperature for 30 minutes. The emission by the luciferase reaction was measured with PHERAstar FSX (BMG LABTECH).

[2] = molecular target: Serine/threonine-protein kinase SIK1 (Homo sapiens, UniProt P57059)
Serine/threonine-protein kinase SIK1, sequence (P57059 whole entry): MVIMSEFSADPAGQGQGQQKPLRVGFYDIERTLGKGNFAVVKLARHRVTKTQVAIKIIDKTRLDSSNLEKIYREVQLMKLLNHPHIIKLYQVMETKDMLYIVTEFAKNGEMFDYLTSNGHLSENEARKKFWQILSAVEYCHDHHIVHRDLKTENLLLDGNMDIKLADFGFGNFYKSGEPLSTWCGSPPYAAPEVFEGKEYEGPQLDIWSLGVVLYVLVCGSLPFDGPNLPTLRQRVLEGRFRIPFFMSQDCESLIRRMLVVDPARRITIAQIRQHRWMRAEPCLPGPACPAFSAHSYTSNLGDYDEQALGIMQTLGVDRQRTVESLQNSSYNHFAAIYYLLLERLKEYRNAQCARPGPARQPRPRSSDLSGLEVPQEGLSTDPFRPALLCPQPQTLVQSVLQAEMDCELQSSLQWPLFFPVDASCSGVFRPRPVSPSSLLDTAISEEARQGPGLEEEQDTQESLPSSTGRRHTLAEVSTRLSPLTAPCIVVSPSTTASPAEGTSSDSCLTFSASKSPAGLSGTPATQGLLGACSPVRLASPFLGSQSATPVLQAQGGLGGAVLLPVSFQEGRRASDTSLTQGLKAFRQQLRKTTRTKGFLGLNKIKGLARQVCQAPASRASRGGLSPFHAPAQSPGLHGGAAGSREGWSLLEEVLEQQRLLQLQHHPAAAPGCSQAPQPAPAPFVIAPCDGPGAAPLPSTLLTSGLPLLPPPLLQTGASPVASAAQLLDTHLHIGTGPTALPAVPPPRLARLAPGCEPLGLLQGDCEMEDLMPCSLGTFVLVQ
Description: as §1

[3] = molecular target: Serine/threonine-protein kinase SIK3 (Homo sapiens, UniProt Q9Y2K2)
Serine/threonine-protein kinase SIK3, sequence (Q9Y2K2 whole entry): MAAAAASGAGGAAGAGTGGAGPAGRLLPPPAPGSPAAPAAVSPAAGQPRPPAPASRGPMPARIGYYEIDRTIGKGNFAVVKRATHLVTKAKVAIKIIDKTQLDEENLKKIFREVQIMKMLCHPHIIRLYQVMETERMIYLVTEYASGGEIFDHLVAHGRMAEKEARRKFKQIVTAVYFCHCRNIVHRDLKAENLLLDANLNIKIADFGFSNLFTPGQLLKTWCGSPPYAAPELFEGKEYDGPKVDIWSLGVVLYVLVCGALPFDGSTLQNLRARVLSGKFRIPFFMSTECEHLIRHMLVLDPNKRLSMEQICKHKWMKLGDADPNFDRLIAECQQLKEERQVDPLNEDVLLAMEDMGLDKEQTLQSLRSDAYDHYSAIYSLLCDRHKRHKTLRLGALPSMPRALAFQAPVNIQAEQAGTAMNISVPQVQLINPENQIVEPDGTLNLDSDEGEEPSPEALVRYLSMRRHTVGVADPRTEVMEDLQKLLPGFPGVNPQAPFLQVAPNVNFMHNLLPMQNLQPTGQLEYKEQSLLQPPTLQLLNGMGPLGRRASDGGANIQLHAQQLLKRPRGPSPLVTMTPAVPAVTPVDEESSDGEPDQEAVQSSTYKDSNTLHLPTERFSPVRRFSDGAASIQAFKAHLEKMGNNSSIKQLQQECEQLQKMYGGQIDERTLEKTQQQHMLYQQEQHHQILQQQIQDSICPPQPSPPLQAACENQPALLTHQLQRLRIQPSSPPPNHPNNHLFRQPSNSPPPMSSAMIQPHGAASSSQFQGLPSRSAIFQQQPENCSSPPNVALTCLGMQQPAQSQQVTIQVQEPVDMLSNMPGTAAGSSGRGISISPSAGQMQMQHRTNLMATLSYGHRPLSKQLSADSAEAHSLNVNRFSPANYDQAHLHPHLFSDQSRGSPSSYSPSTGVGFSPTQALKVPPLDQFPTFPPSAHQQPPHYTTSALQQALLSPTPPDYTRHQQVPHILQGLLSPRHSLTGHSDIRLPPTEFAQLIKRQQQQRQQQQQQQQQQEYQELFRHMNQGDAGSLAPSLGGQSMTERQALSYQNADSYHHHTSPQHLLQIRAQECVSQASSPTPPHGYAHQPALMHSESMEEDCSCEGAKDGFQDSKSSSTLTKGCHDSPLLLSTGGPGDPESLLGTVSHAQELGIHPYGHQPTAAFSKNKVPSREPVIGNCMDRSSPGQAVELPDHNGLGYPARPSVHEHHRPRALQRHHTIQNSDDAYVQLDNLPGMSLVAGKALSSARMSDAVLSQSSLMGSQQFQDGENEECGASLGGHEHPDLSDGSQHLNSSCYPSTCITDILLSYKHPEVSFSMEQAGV
Description: as §1

Serine/threonine-protein kinase SIK2, sequence (Q9H0K1 whole entry): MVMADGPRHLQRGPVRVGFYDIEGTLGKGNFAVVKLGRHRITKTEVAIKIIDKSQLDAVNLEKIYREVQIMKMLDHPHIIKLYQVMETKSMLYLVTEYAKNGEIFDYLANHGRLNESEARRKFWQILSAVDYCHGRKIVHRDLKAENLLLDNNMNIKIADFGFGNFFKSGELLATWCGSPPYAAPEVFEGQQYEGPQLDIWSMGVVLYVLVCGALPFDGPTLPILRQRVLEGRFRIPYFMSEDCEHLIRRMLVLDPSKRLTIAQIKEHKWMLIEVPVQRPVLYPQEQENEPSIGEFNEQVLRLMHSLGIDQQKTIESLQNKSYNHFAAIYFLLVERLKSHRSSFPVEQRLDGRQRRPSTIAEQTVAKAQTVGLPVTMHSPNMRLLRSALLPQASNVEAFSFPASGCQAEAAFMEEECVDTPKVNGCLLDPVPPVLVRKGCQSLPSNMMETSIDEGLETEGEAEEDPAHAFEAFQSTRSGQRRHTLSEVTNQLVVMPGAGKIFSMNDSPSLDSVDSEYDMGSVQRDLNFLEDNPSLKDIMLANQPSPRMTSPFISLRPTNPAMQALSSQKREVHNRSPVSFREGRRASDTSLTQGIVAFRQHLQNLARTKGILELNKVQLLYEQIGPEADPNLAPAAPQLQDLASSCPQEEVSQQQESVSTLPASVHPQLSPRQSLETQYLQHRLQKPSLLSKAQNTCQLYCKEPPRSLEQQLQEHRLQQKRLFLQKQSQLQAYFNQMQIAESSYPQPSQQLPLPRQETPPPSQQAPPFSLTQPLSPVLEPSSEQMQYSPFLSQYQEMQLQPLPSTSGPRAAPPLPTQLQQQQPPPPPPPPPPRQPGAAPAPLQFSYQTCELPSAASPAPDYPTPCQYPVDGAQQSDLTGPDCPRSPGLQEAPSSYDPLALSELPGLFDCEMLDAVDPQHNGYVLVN

SMILES	IC50 [1]	IC50 [2]	IC50 [3]
COc1cc(-c2c3c(OC(F)F)cc(-c4cnn(C)c4)cc3nn2C)cc(OC(F)F)c1C(=O)N1CC(O)(C(F)(F)F)C1 [US20260062387, Example 62]	3.9 nM	7.9 nM	10.4 nM
COc1cc(-c2c3c(C(F)F)cc(-c4cnn(CCC(=O)N(C)C)c4)cc3nn2C)cc(OC(F)F)c1C(=O)N1CC(O)(C(F)(F)F)C1 [US20260062387, Example 65]	5.6 nM	9.6 nM	3 nM

The remaining compounds from weak to strong by IC50 [1], led by results:

IC50 [1]	IC50 [2]	IC50 [3]	SMILES
9 nM	–	15.8 nM	COc1cc(-c2c3c(OC(F)F)cc(-c4cn(C)nn4)cc3nn2C)cc(OC(F)F)c1C(=O)N1CC(O)(C(F)F)C1 [US20260062387, Example 64]
6.1 nM	3 nM	6.8 nM	COc1cc(-c2c3c(C(F)F)cc(-c4cnn(C[C@@H](C)O)c4)cc3nn2C)cc(OC(F)F)c1C(=O)N1CC(O)(C(F)(F)F)C1 [US20260062387, Example 71]
5.6 nM	3.9 nM	–	COc1cc(-c2c3c(C(F)F)cc(-c4cnn(C[C@H](C)O)c4)cc3nn2C)cc(OC(F)F)c1C(=O)N1CC(O)(C(F)(F)F)C1 [US20260062387, Example 72]
